Counter-ions that a name gives are not always drawn.
What follows are molecules tested on apomorphine-induced climbing in CD-1 male mice (assay: Climbing mouse assay (CMA), antagonism of apomorphine-induced climbing). Settings: ip, Table I, compounds of the invention, i.p. 30 min before apomorphine 1.5 mg/kg s.c.
Type: in vivo
Procedure: CLIMBING MOUSE ASSAY (CMA)
This test may be used as to identify compounds useful in treating psychosis. Costall, B. et al, Eur. J. Pharm. 50: 39-50 (1978); Protais, P., et al., Psychopharmacology 50:1-6 (1976). […] This effect of apomorphine is antagonized by the D2 receptor antagonist.
CD-1 male mice (20-30 grams) are assigned to groups of 8 and individually placed in wire mesh stick cages and allowed one hour for adaptation to new environment. Apomorphine is injected at 1.5 mg/kg subcutaneously which is a dose which causes climbing in all subjects for thirty minutes. Test compounds are administered intraperitoneally thirty minutes prior to the apomorphine administration at a dose of 20 mg/kg.
For evaluation of climbing, three readings are taken at ten, twenty and thirty minutes after apomorphine administration according to the following scale:
4 paws on bottom (no climbing) 0
2 paws on the wall (rearing) 1
4 paws on the wall (full climb) 2
The climbing scores are individually totaled (maximal score: 6 per mouse over three readings) and total score of the control (vehicle intraperitoneally (ip) and apomorphine subcutaneous) is set to 100%. ED50 values with 95% confidence limits calculated by a linear regression analysis of some of the compounds of the present invention as well as a standard antipsychotic agent (clozapine) are presented in Table 1.

SMILES | ED50
NC[C@@H]1O[C@H](C2CCN(CCc3ccccc3)CC2)Cc2c1ccc(O)c2O (relative stereo) [Example 4D, cis-1-(Aminomethyl)-3,4-dihydro-3-[1-(2-phenylethyl)-4-piperidinyl]-1H-2-benzopyran-5,6-diol Dihydrobromide Sesquihydrate] | 8.1 mg/kg

The molecules below were run against T1, human dopamine D2L receptor (Human D2Long Receptors) (Homo sapiens, UniProt P14416) (assay: Human dopamine D2L receptor binding assay ([3H]N-methyl spiroperidol displacement)). Settings: not given.
T1 construct: expressed in transfected cells
Procedure: A single high expressing clonal cell line was isolated and membranes from this cell line were used for receptor binding assays. […] The incubation buffer contained: 50 mM Tris, 120 mM NaCl; 5 mM Kcl; 2 mM CaCl2; 1 mM MgCl2; pH 7.7). […] Incubations were performed at 37° C. in a shaking water bath for 30 min, terminated by rapid filtration through Whatman GF/B filters (presoaked in 0.3% polyethyleneimine), and counted in a liquid scintillation counter. Non-specific binding was defined as that remaining in the presence of 3 μM eticlopride. […] The percent inhibition at each drug concentration was the average of duplicate determinations. […] Cheng-Prisoff determination (Ki's) are performed using Prism software.

T1 sequence (P14416 whole entry): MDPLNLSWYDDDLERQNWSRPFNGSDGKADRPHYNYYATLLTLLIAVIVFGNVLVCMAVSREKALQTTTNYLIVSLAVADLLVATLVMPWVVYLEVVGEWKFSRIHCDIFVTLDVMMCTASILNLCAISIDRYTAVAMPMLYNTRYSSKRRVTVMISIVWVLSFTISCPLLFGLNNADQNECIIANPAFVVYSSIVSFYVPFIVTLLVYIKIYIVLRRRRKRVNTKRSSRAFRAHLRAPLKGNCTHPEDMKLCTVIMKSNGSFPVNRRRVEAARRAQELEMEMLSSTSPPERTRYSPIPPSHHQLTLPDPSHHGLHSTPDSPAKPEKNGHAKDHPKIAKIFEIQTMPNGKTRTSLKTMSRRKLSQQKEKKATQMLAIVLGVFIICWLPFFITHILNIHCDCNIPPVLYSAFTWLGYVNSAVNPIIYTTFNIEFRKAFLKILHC

SMILES | Ki
COc1cc(C(C)=O)ccc1OCCCN1CCC([C@@H]2Cc3c(ccc4c3OC3(CCCCC3)O4)[C@H](CNC=O)O2)CC1 (relative stereo) [Example 30, cis-N-[3-[1-[3-(4-acetyl-2-methoxyphenoxy)propyl]-4-piperidinyl]-5,6-(cyclohexylidenedioxy)-3,4-dihydro-1H-2-benzopyran-1-ylmethyl]formamide oxalate Trihydrate] | 857 nM
O=CNC[C@@H]1O[C@H](C2CCN(CCc3cccs3)CC2)Cc2c1ccc1c2OC2(CCCCC2)O1 (relative stereo) [Example 24, cis-N-[5,6-(cyclohexylidinedioxy)-3,4-dihydro-3-[1(2-(thiophen-2-yl)ethyl)-4-piperidinyl]-1H-2-benzofuran-1-ylmethyl]formamide] | 506 nM

Same assay, conditions: Table 2; [3H]N-methyl spiroperidol 0.4 nM; CHO membranes; 37° C., 30 min; pH 7.7; read-out: Ki

SMILES | Ki
NC[C@@H]1O[C@H](C2CCN(CCOc3ccccc3)CC2)Cc2c1ccc(O)c2O (relative stereo) [Example 23, cis-1-(Aminomethyl)-3,4-dihydro-3-[1(2-phenoxyethyl)-4-piperidinyl]-1H-2-benzopyran-5,6-diol dihydrochloride 0.4 hydrate] | 500 nM
NC[C@@H]1O[C@H](C2CCN(CCc3ccc(Cl)cc3)CC2)Cc2c1ccc(O)c2O (relative stereo) [Example 14, cis-1-(Aminomethyl)-3-[1-[2-(4-chlorophenyl)ethyl]-3,4-dihydro-4-piperidinyl]-1H-2-benzopyran-5,6-diol dihydrochloride] | 505 nM
NC[C@@H]1O[C@H](C2CCN(CCCn3c(=O)[nH]c4ccccc43)CC2)Cc2c1ccc(O)c2O (relative stereo) [Example 34, cis-1-[3-[4-(1-Aminomethyl-3,4-dihydro-5,6-dihydroxy-1H-2-benzopyran-3-yl)-1-piperidinyl]propyl]-1,3-dihydrobenzimidazol-2-one Dihydrochloride 1.33 Hydrate] | 432 nM
NC[C@@H]1O[C@H](C2CCN(CCCC(c3ccc(F)cc3)c3ccc(F)cc3)CC2)Cc2c1ccc(O)c2O (relative stereo) [Example 29, cis-1-(Aminomethyl)3-[1-[4,4-bis-(4-fluorophenyl)butyl]-4-piperidinyl]-1H-2-benzopyran-5,6-diol Dihydrochloride Dihydrate] | 91.8 nM
NC[C@@H]1O[C@H](C2CCNCC2)Cc2c1ccc(O)c2O (relative stereo) [Example 33, cis-1-(Aminomethyl)-3,4-dihydro-3-(4-piperidinyl)-1H-2-benzopyran-5,6-diolDihydrochloride 0.3 Hydrate] | 3900 nM
NC[C@@H]1O[C@H](C2CCN(CCCC(c3ccc(F)cc3)c3ccc(F)cc3)CC2)Cc2c1ccc1c2OC2(CCCCC2)O1 (relative stereo) [Example 39, cis-1-Aminomethyl-5,6-(cyclohexylidenedioxy)-3,4-dihydro-3-[1-[4,4-bis(4-fluorophenyl)butyl]-4-piperidinyl]-1H-2-benzopyran Dioxalate 2.4 Hydrate] | 153 nM
COc1cc(C(C)=O)ccc1OCCCN1CCC([C@@H]2Cc3c(ccc(O)c3O)[C@H](CN)O2)CC1 (relative stereo) [Example 31, cis-1-(3-[3-[4-[1-(Aminomethyl)-3,4-dihydro-5,6-dihydroxy-1H-2-benzopyran-3-yl]-1-piperidinyl]propoxy]-3-methoxyphenyl)ethanone Dihydrochloride Dihydrate] | 1100 nM
COc1ccc(CCN2CCC([C@@H]3Cc4c(ccc(O)c4O)[C@H](CN)O3)CC2)cc1 (relative stereo) [Example 11, cis-1-(Aminomethyl)-3,4-dihydro-3-[1-[2-(4-methoxyphenyl)ethyl]-4-piperidinyl]-1H-2-benzopyran-5,6-diol Dihydrochloride] | 1200 nM
NC[C@@H]1O[C@H](C2CCN(CCc3ccccc3)CC2)Cc2c1ccc(O)c2O (relative stereo) [Example 4D, cis-1-(Aminomethyl)-3,4-dihydro-3-[1-(2-phenylethyl)-4-piperidinyl]-1H-2-benzopyran-5,6-diol Dihydrobromide Sesquihydrate] | 1090 nM
CNC[C@@H]1O[C@H](C2CCN(CCc3ccc(Cl)cc3)CC2)Cc2c1ccc(O)c2O (relative stereo) [Example 15, cis-3-[1-[2-(4-Chlorophenyl)ethyl]-4-piperidinyl]-3,4-dihydro-1-(N-methylaminomethyl)-1H-2-benzopyran-5,6-diol dihydrochloride hemihydrate] | 413 nM

Source: patent US6004982A, “4-piperidinyl) H-2-benzopyran derivatives useful as antipsychotic agents” (Hoechst Marion Roussel, Inc., priority 1998, dated 1999)
